“And” between values parts separate entries of the source, which are not always exact repeats. Equal values may be shown once. “Also recorded” adds a separate entry of the source. Read-outs that look alike come from different tables or passages of the source.
What was measured:
physchem [1] = details: for Degradation level in the preliminary test / Hydrolytic stability in the preliminary test: 5 days; for Degradation level in the preliminary test: dark; for Hydrolytic stability in the preliminary test: pH 4, 7 and 9, 50 °C
Protocol: The incubation was performed in the dark, in order to avoid the influence of the photolysis on degradation of the analytes. The water used for the preparation of buffers was autoclaved, all glassware was clean, flushed with methanol, and dried in high temperature. Samples were closed in glass tubes with a sealed cap. The air from above the solution was removed by a nitrogen stream just before capping. In the preliminary test, solutions of single analytes were prepared in each tested pH: 4, 7, and 9, which is required by the OECD guidelines. There was also a blank sample prepared for each pH. Samples in the preliminary test were prepared in two parallel replicates. Moreover, the complete preliminary test was repeated twice. The preliminary test was performed at 50 °C for 5 days. […] In the case of the extended tests, 7 measuring points were provided during the time of the test. Each measuring point was performed in two parallel replicates. […] The test was conducted for 30 days or to 90 % elimination of a compound. Obtained results were used to determine the hydrolysis rate constant (k) using equation: 1 lnCt/C0=kt
The HPLC-UV/Vis technique was applied to determine the level of hydrolytic degradation of the analytes. In the preliminary test, the control and blank samples were analyzed at the beginning and the end of the test. […] In the extended test, the samples collected in the time intervals were analyzed, and peak areas were compared to those obtained at the beginning of the test. This was used to determine the kinetic of this hydrolysis process by using the Equation 1. In general, each analyte was analyzed by a simple HPLC method with UV/Vis detection. Gemini C18 (Phenomenex, USA), 5 μm, 110 Å, 150 mm × 4.6 mm chromatographic column was applied for each method and three different mobile phases were used (water or 0.1 % HCOOH) mixed with the acetonitrile. The conditions applied during the LC-MS analysis with an ion trap detector for the qualitative analysis of the samples collected after the extended tests at 20 and 70 °C are presented in the Table S2.

physchem [2] = assay type: physicochemical; details: for half-life: buffer, read-out: t½, extrapolated half-life (converted)
Protocol: By obtaining at least two rate constants for two different temperatures, it is possible to calculate the rate constants and, in consequence, half-lives at other temperatures, according to the Arrhenius equation: 3 k=A×e^−E/R×Torlnk=−E/R×T+lnA
Therefore, these equations were applied to extrapolate the obtained results and calculate the rate constants and half-lives of unstable anticancer drugs in more environmentally relevant temperatures (4, 10, or 15 °C), which are typical to natural waters.
Additionally, these observations confirm that CP is much more vulnerable for hydrolysis than IF, which is interesting how two isomers (like CP and IF) may differently undergo hydrolysis process. […] If the conclusions were drawn only based on the results from the preliminary experiments (incubation at 50 °C for 5 days), it would be assumed that both compounds, especially CP, are very unstable. […] Moreover, using Equation 3, it was possible to extrapolate the results to determine the rate constants and half-lives at the temperatures 4, 10, and 15 °C, which are ordinary for environmental waters (Table 2).

[3] = parameters: method as in Muñoz et al. ([1996]); details: 20 °C, pH 5; ref Muñoz et al. ([1996]); cited from earlier work
physchem [4] = assay type: physicochemical; details: for half-life: buffer
Protocol: Moreover, the complete preliminary test was repeated twice. […] Each measuring point was performed in two parallel replicates.
where t, time; ct, c0, concentration of the analyte at a time (0 means the beginning of the test); k, rate constant.
Based on this, the t1/2 was determined by using the equation: 2 t1/2=ln2/k
where t1/2, half-life of the analyte; k, rate constant.
The degradation was monitored for 30 days or until 90 % of a compound was degraded. Based on the obtained results (Fig. 4) the constant rates (k) and half-lives (t1/2) have been calculated (Table 1).
After determining the hydrolysis rate constants it was possible to calculate activation energy (Ea) of this process at each pH, either from plotting ln k from T^−1 (Figure 5) when there were three k values obtained for each compound and pH (CP at pH 4, 7, and 9 as well as IF at pH 4) or from the following equation (for IF at pH 7 and 9, where only two k values were obtained) (Table 1): 4 E=Rlnk2−lnk1/1/T1¯−1/T2
where R, gas constant (8.314 J/mol × K); k1, k2, rate constants for different temperatures; T, absolute temperature (K).

[5] = HPLC water with 4 % DMSO, ref Negreira et al. ([2013a]), cited from earlier work; for Degradation level / loss: 25 °C, 24 h incubation
[6] = parameters: method as in Legay et al. [2014]; details: ref Legay et al. [2014]; cited from earlier work
[7] = parameters: method as in Yadav et al. [2012]; details: also under several stress conditions; ref Yadav et al. [2012]; cited from earlier work
[8] = parameters: method as in McElnay et al. ([1988]) and Vrignaud et al. ([2015]); details: ref McElnay et al. ([1988]) and Vrignaud et al. ([2015]); cited from earlier work
[9] = parameters: method as in Negreira et al. ([2013b]); details: acidification of samples, organic modifier such as 50 % methanol or DMSO, previously tested conditions; ref Negreira et al. ([2013b]); cited from earlier work
[10] = parameters: method as in Białk-Bielińska et al. [2017]; details: ref Białk-Bielińska et al. [2017]; cited from earlier work

O=P1(NCCCl)OCCCN1CCCl (centres unmarked) [IF, ifosfamide]
Degradation level in the preliminary test (physchem [1]; pH 7, 50 °C): 22.3% | Degradation level in the preliminary test (physchem [1]; pH 9, 50 °C): 27.5% | k, extrapolated rate constant (physchem [2]; 4 °C, pH 4): 8.3e-05 h⁻¹ | k, extrapolated rate constant (physchem [2]; 4 °C, pH 7): 3e-06 h⁻¹ | k, extrapolated rate constant (physchem [2]; 4 °C, pH 9): 4e-06 h⁻¹ | k, extrapolated rate constant (physchem [2]; 10 °C, pH 4): 0.000107 h⁻¹ | k, extrapolated rate constant (physchem [2]; 10 °C, pH 7): 5e-06 h⁻¹ | k, extrapolated rate constant (physchem [2]; 10 °C, pH 9): 6e-06 h⁻¹ | k, extrapolated rate constant (physchem [2]; 15 °C, pH 4): 0.000199 h⁻¹ | k, extrapolated rate constant (physchem [2]; 15 °C, pH 7): 1.1e-05 h⁻¹ | k, extrapolated rate constant (physchem [2]; 15 °C, pH 9): 1.6e-05 h⁻¹ | half-life (physchem [2]; pH 4, 4 °C, pH 4): 349 days | half-life (physchem [2]; pH 4, 10 °C, pH 4): 271 days | half-life (physchem [2]; pH 4, 15 °C, pH 4): 146 days | half-life (physchem [2]; pH 7, 10 °C, pH 7): 6360 days | half-life (physchem [2]; pH 7, 15 °C, pH 7): 2580 days | half-life (physchem [2]; pH 9, 4 °C, pH 9): 6510 days | half-life (physchem [2]; pH 9, 10 °C, pH 9): 4520 days | half-life (physchem [2]; pH 9, 15 °C, pH 9): 1860 days | half-life [3]: around 620 days | Degradation in 30 days (physchem [4]; 20 °C, pH 7): no degradation occurred; also recorded: no changes in the initial concentration; also recorded: completely stable | Degradation in 30 days (physchem [4]; 20 °C, pH 9): no degradation occurred; also recorded: no changes in the initial concentration; also recorded: completely stable | k, hydrolysis rate constant (physchem [4]; 20 °C, pH 4): 0.00038 h⁻¹ | k, hydrolysis rate constant (physchem [4]; 50 °C, pH 4): 0.008 h⁻¹ | k, hydrolysis rate constant (physchem [4]; 50 °C, pH 7): 0.0029 h⁻¹ | k, hydrolysis rate constant (physchem [4]; 50 °C, pH 9): 0.0036 h⁻¹ | k, hydrolysis rate constant (physchem [4]; 70 °C, pH 4): 0.059 h⁻¹ | k, hydrolysis rate constant (physchem [4]; 70 °C, pH 7): 0.041 h⁻¹ | k, hydrolysis rate constant (physchem [4]; 70 °C, pH 9): 0.049 h⁻¹ | half-life (physchem [4]; pH 4, 20 °C, pH 4, read-out: Half-life (converted)): ~80 days | half-life (physchem [4]; pH 4, 20 °C, pH 4, read-out: t½, half-life (converted)): 76.8 days | half-life (physchem [4]; pH 4, 50 °C, pH 4, read-out: t½, half-life (converted)): 3.6 days | half-life (physchem [4]; pH 4, 70 °C, pH 4, read-out: t½, half-life (converted)): 0.488 days | half-life (physchem [4]; pH 7, 50 °C, pH 7, read-out: t½, half-life (converted)): 10.1 days | half-life (physchem [4]; pH 7, 70 °C, pH 7, read-out: t½, half-life (converted)): 0.704 days | half-life (physchem [4]; pH 9, 50 °C, pH 9, read-out: t½, half-life (converted)): 7.99 days | half-life (physchem [4]; pH 9, 70 °C, pH 9, read-out: t½, half-life (converted)): 0.583 days | Ea, activation energy of hydrolysis (physchem [4]; pH 4): 20.1 kcal/mol | Ea, activation energy of hydrolysis (physchem [4]; pH 7): 29.21 kcal/mol | Ea, activation energy of hydrolysis (physchem [4]; pH 9): 29.21 kcal/mol and 28.7 kcal/mol

O=c1[nH]cc(F)c(=O)[nH]1 [5-FU, 5-fluorouracil]
Stability in 24 h test ([5]; 4 °C, 24 h): stable | Long-term stability at 4 °C ([5]; 4 °C): stable for 1 month | Stability in 24 h test ([5]; 15 °C, 24 h): still stable | Degradation level / loss [5]: 11% | half-life (physchem [1]; buffer): ≥ 365 days | Hydrolytic stability in the preliminary test (physchem [1]): hydrolytically stable | Stability in aqueous solutions for medication purposes [6]: stable | Temperature up to which found stable [7]: up to 275 °C

CN(Cc1cnc2nc(N)nc(N)c2n1)c1ccc(C(=O)N[C@@H](CCC(=O)O)C(=O)O)cc1 [MTX, methotrexate]
Stability in 24 h test ([5]; 4 °C, 24 h): stable | Concentration decreased to ([5]; 4 °C, after 9 days): around 50% | Disappeared from solution ([5]; 15 °C, 24 h): more than 50% | Degradation level / loss [5]: 65% | Time of proved stability [8]: at least 24 h | Stability after acidification and with organic modifier [9]: stable | half-life (physchem [1]; aqueous buffer): ≥ 365 days | Hydrolytic stability in the preliminary test (physchem [1]): hydrolytically stable | Degradation level in the preliminary test (physchem [1]; pH 4, 50 °C): 0% | Hydrolytic stability under ecotoxicological test conditions [10]: hydrolytically stable | Photolytic stability under ecotoxicological test conditions [10]: susceptible to photolysis

— publication PMC8536627, “Hydrolytic stability of anticancer drugs and one metabolite in the aquatic environment” (Environmental Science and Pollution Research International, 2021)
